Experiments:
Format in all cases: functional
[1] = test system: NCI-H522; experiment: Antiproliferative activity against human NCI-H522 cells assessed as cell growth at 500 uM by SRB assay; details: read-out: Activity
[2] = test system: SNB-75; experiment: Antiproliferative activity against human SNB75 cells assessed as cell growth at 5 uM by SRB assay; details: read-out: Activity
[3] = test system: HL-60(TB); experiment: Antiproliferative activity against human HL-60(TB) cells by SRB assay
[4] = test system: SW-620; experiment: Antiproliferative activity against human SW620 cells assessed as cell growth at 0.5 uM by SRB assay; details: read-out: Activity
[5] = test system: NCI-H460; experiment: Antiproliferative activity against human NCI-H460 cells assessed as cell growth at 500 uM by SRB assay; details: read-out: Activity
[6] = test system: UACC-257; experiment: Antiproliferative activity against human UACC257 cells assessed as cell growth at 500 uM by SRB assay; details: read-out: Activity
[7] = test system: OVCAR-4; experiment: Antiproliferative activity against human OVCAR4 cells by SRB assay
[8] = test system: SR; experiment: Antiproliferative activity against human SR cells assessed as cell growth at 50 uM by SRB assay; details: read-out: Activity
[9] = test system: UACC-257; experiment: Antiproliferative activity against human UACC257 cells assessed as cell growth at 5 mM by SRB assay; details: read-out: Activity
[10] = test system: EKVX; experiment: Antiproliferative activity against human EKVX cells assessed as cell growth at 5 uM by SRB assay; details: read-out: Activity
[11] = test system: OVCAR-5; experiment: Antiproliferative activity against human OVCAR5 cells at 5 uM by SRB assay
[12] = test system: UACC-62; experiment: Antiproliferative activity against human UACC62 cells assessed as cell growth at 500 uM by SRB assay; details: read-out: Activity
[13] = test system: UO-31; experiment: Antiproliferative activity against human UO31 cells assessed as cell growth at 0.5 uM by SRB assay; details: read-out: Activity
[14] = test system: SNB-75; experiment: Antiproliferative activity against human SNB75 cells by SRB assay
[15] = test system: DU-145; experiment: Antiproliferative activity against human DU145 cells by SRB assay
[16] = test system: MOLT-4; experiment: Antiproliferative activity against human MOLT4 cells by SRB assay
[17] = test system: OVCAR-8; experiment: Antiproliferative activity against human OVCAR8 cells assessed as cell growth at 50 uM by SRB assay; details: read-out: Activity
[18] = test system: EKVX; experiment: Antiproliferative activity against human EKVX cells assessed as cell growth at 50 uM by SRB assay; details: read-out: Activity
[19] = test system: SW-620; experiment: Antiproliferative activity against human SW620 cells assessed as cell growth at 5 uM by SRB assay; details: read-out: Activity
[20] = test system: ACHN; experiment: Antiproliferative activity against human ACHN cells by SRB assay
[21] = test system: SK-MEL-5; experiment: Antiproliferative activity against human SK-MEL-5 cells assessed as cell growth at 500 uM by SRB assay; details: read-out: Activity
[22] = test system: T47D; experiment: Antiproliferative activity against human T47D cells assessed as cell growth at 0.5 uM by SRB assay; details: read-out: Activity
[23] = test system: NCI-H522; experiment: Antiproliferative activity against human NCI-H522 cells assessed as cell growth at 5 uM by SRB assay; details: read-out: Activity
[24] = test system: SK-MEL-2; experiment: Antiproliferative activity against human SK-MEL-2 cells assessed as cell growth at 50 uM by SRB assay; details: read-out: Activity
[25] = test system: KM12; experiment: Antiproliferative activity against human KM12 cells assessed as cell growth at 50 uM by SRB assay; details: read-out: Activity
[26] = test system: T47D; experiment: Antiproliferative activity against human T47D cells assessed as cell growth at 500 uM by SRB assay; details: read-out: Activity
[27] = test system: UACC-257; experiment: Antiproliferative activity against human UACC257 cells assessed as cell growth at 0.5 uM by SRB assay; details: read-out: Activity
[28] = test system: T47D; experiment: Antiproliferative activity against human T47D cells assessed as cell growth at 5 uM by SRB assay; details: read-out: Activity
[29] = test system: UACC-62; experiment: Antiproliferative activity against human UACC62 cells by SRB assay
[30] = test system: HOP-92; experiment: Antiproliferative activity against human HOP92 cells by SRB assay
[31] = test system: SK-MEL-28; experiment: Antiproliferative activity against human SK-MEL-28 cells assessed as cell growth at 50 uM by SRB assay; details: read-out: Activity
[32] = test system: BT-549; experiment: Antiproliferative activity against human BT549 cells assessed as cell growth at 50 uM by SRB assay; details: read-out: Activity
[33] = test system: A549; experiment: Antiproliferative activity against human A549 cells by SRB assay
[34] = test system: HCT-116; experiment: Antiproliferative activity against human HCT116 cells assessed as cell growth at 500 uM by SRB assay; details: read-out: Activity
[35] = test system: SK-MEL-2; experiment: Antiproliferative activity against human SK-MEL-2 cells assessed as cell growth at 500 uM by SRB assay; details: read-out: Activity
[36] = test system: HL-60(TB); experiment: Antiproliferative activity against human HL-60(TB) cells assessed as cell growth at 0.5 uM by SRB assay; details: read-out: Activity
[37] = test system: MOLT-4; experiment: Antiproliferative activity against human MOLT4 cells assessed as cell growth at 50 uM by SRB assay; details: read-out: Activity
[38] = test system: T47D; experiment: Antiproliferative activity against human T47D cells assessed as cell growth at 50 uM by SRB assay; details: read-out: Activity
[39] = test system: SF-539; experiment: Antiproliferative activity against human SF539 cells by SRB assay
[40] = test system: SF-268; experiment: Antiproliferative activity against human SF268 cells assessed as cell growth at 500 uM by SRB assay; details: read-out: Activity
[41] = test system: UO-31; experiment: Antiproliferative activity against human UO31 cells assessed as cell growth at 50 uM by SRB assay; details: read-out: Activity
[42] = read-out: LC50 (the source's name)
[43] = read-out: pLC50 (the source's name) (converted)

Structure (SMILES): O=C(/C=C/c1ccc(O)c(O)c1)OCCc1ccc(O)c(O)c1
- growth at 500 µM [1]: 10%
- growth at 5 µM [2]: 75%
- GI50 ([3]; read-out: GI50): 2540 nM
- CC50 [3, 42]: > 50 µM
- TGI ([3]; read-out: TGI): 17.7 µM
- GI50 ([3]; read-out: pGI50 (converted)): 2630 nM
- CC50 [3, 43]: > 50.1 µM
- TGI ([3]; read-out: pTGI (converted)): 17.8 µM
- growth at 0.5 µM [4]: 98%
- growth at 500 µM [5]: 94%
- growth at 500 µM [6]: 83%
- GI50 [7]: 7.37 µM
- CC50 [7, 42]: > 50 µM
- TGI ([7]; read-out: TGI): > 50 µM
- CC50 [7, 43]: > 50.1 µM
- TGI ([7]; read-out: pTGI): > 50.1 µM
- growth at 50 µM [8]: 77%
- growth at 5000 µM [9]: 18%
- growth at 5 µM [10]: 84%
- Activity [11]: 89%
- growth at 500 µM [12]: 52%
- growth at 0.5 µM [13]: 98%
- GI50 ([14]; read-out: GI50): 9.5 µM
- CC50 [14, 42]: > 50 µM
- TGI ([14]; read-out: TGI): > 50 µM
- GI50 ([14]; read-out: pGI50 (converted)): 9.55 µM
- CC50 [14, 43]: > 50.1 µM
- TGI ([14]; read-out: pTGI): > 50.1 µM
- GI50 ([15]; read-out: GI50): 9.75 µM
- CC50 [15, 42]: > 50 µM
- GI50 ([15]; read-out: pGI50 (converted)): 9.77 µM
- CC50 [15, 43]: > 50.1 µM
- TGI ([15]; read-out: pTGI (converted)): 30.2 µM
- GI50 ([16]; read-out: GI50): 3.06 µM
- CC50 [16, 42]: > 50 µM
- TGI ([16]; read-out: TGI): > 50 µM
- GI50 ([16]; read-out: pGI50 (converted)): 3.09 µM
- CC50 [16, 43]: > 50.1 µM
- TGI ([16]; read-out: pTGI): > 50.1 µM
- growth at 50 µM [17]: 78%
- growth at 50 µM [18]: 88%
- growth at 5 µM [19]: 95%
- GI50 ([20]; read-out: GI50): 2940 nM
- CC50 [20, 42]: > 50 µM
- TGI ([20]; read-out: TGI): 38.7 µM
- GI50 ([20]; read-out: pGI50 (converted)): 2950 nM
- CC50 [20, 43]: > 50.1 µM
- TGI ([20]; read-out: pTGI (converted)): 38.9 µM
- growth at 500 µM [21]: 64%
- growth at 0.5 µM [22]: 98%
- growth at 5 µM [23]: 89%
- growth at 50 µM [24]: 91%
- growth at 50 µM [25]: 81%
- growth at 500 µM [26]: 71%
- growth at 0.5 µM [27]: 93%
- growth at 5 µM [28]: 102%
- GI50 ([29]; read-out: GI50): 5.33 µM
- CC50 [29, 42]: > 50 µM
- TGI ([29]; read-out: TGI): 38.3 µM
- GI50 ([29]; read-out: pGI50 (converted)): 5.37 µM
- CC50 [29, 43]: > 50.1 µM
- TGI ([29]; read-out: pTGI (converted)): 38 µM
- GI50 ([30]; read-out: GI50): 790 nM
- CC50 [30, 42]: > 50 µM
- TGI ([30]; read-out: TGI): 16.8 µM
- GI50 ([30]; read-out: pGI50 (converted)): 794 nM
- CC50 [30, 43]: > 50.1 µM
- TGI ([30]; read-out: pTGI (converted)): 17 µM
- growth at 50 µM [31]: 93%
- growth at 50 µM [32]: 97%
- GI50 ([33]; read-out: GI50): 17.7 µM
- CC50 [33, 42]: > 50 µM
- TGI ([33]; read-out: TGI): > 50 µM
- GI50 ([33]; read-out: pGI50 (converted)): 17.8 µM
- CC50 [33, 43]: > 50.1 µM
- TGI ([33]; read-out: pTGI): > 50.1 µM
- growth at 500 µM [34]: 65%
- growth at 500 µM [35]: 38%
- growth at 0.5 µM [36]: 94%
- growth at 50 µM [37]: 89%
- growth at 50 µM [38]: 93%
- GI50 ([39]; read-out: GI50): 5.83 µM
- CC50 [39, 42]: > 50 µM
- TGI ([39]; read-out: TGI): 24.2 µM
- GI50 ([39]; read-out: pGI50 (converted)): 5.89 µM
- CC50 [39, 43]: > 50.1 µM
- TGI ([39]; read-out: pTGI (converted)): 24 µM
- growth at 500 µM [40]: 57%
- growth at 50 µM [41]: 82%

Reference: ChEMBL document CHEMBL1154899, “Synthesis and biological evaluation of caffeic acid 3,4-dihydroxyphenethyl ester” (J Nat Prod, 2010)
